Tested on: naive Sprague Dawley rat hearts
Settings: ex vivo isolated perfused rat heart, percent change over vehicle; for Isolated Heart Assay dP/dtmax(%): contractility; for Isolated Heart Assay dP/dtmin(%): relaxation (lusitropic)

Row | Compound | Isolated Heart Assay dP/dtmax(%) | Isolated Heart Assay dP/dtmin(%)
1 | COc1cccc(-c2nnc(NS(=O)(=O)[C@@H](C)[C@H](OC)c3ncc(C)cn3)n2-c2cccnc2OC)n1 (atropisomer, axis not shown) [Example 741.0, (1R,2S, P)-1-methoxy-N-(4-(2-methoxy-3-pyridinyl)-5-(6-methoxy-2-pyridinyl)-4H-1,2,4-triazol-3-yl)-1-(5-methyl-2-pyrimidinyl)-2-propanesulfonamide and (1R,2S, M)-1-methoxy-N-(4-(2-methoxy-3-pyridinyl)-5-(6-methoxy-2-pyridinyl)-4H-1,2,4-triazol-3-yl)-1-(5-methyl-2-pyrimidinyl)-2-propanesulfonamide] | 1.4% | 6.6%
2 | COc1cccc(OC)c1-n1c(NS(=O)(=O)[C@@H](C)[C@H](C)c2ncc(F)cn2)nnc1-c1cccnc1 (racemic) [Example 184.0, (2R,3S)-N-(4-(2,6-dimethoxyphenyl)-5-(3-pyridinyl)-4H-1,2,4-triazol-3-yl)-3-(5-fluoro-2-pyrimidinyl)-2-butanesulfonamide or (2S,3R)-N-(4-(2,6-dimethoxyphenyl)-5-(3-pyridinyl)-4H-1,2,4-triazol-3-yl)-3-(5-fluoro-2-pyrimidinyl)-2-butanesulfonamide] | 14.5% | 14.0%
3 | COc1cccc(OC)c1-n1c(NS(=O)(=O)[C@H](C)[C@@H](OC)c2ccc(Cl)cn2)nnc1-c1cccnc1 (single isomer, unassigned) [Example 531.0, (1S,2R)-1-(5-chloro-2-pyridinyl)-N-(4-(2,6-dimethoxyphenyl)-5-(3-pyridinyl)-4H-1,2,4-triazol-3-yl)-1-methoxy-2-propanesulfonamide or (1R,2S)-1-(5-chloro-2-pyridinyl)-N-(4-(2,6-dimethoxyphenyl)-5-(3-pyridinyl)-4H-1,2,4-triazol-3-yl)-1-methoxy-2-propanesulfonamide] | 4.1% | 1.9%
4 | COc1cccc(OC)c1-n1c(NS(=O)(=O)[C@H](C)[C@@H](O)c2cnc(C)cn2)nnc1-c1cncc(C)c1 (single isomer, unassigned) [Example 569.0, (1S,2R)-N-(4-(2,6-dimethoxyphenyl)-5-(5-methyl-3-pyridinyl)-4H-1,2,4-triazol-3-yl)-1-hydroxy-1-(5-methyl-2-pyrazinyl)-2-propanesulfonamide or (1R,2S)-N-(4-(2,6-dimethoxyphenyl)-5-(5-methyl-3-pyridinyl)-4H-1,2,4-triazol-3-yl)-1-hydroxy-1-(5-methyl-2-pyrazinyl)-2-propanesulfonamide] | 12.4% | 12.7%
5 | COc1cccc(OC)c1-n1c(NS(=O)(=O)[C@H](C)[C@@H](OC)c2cnc(C)cn2)nnc1-c1cncc(C)c1 (single isomer, unassigned) [Example 571.0, (1S,2R)-N-(4-(2,6-dimethoxyphenyl)-5-(5-methyl-3-pyridinyl)-4H-1,2,4-triazol-3-yl)-1-methoxy-1-(5-methyl-2-pyrazinyl)-2-propanesulfonamide or (1R,2S)-N-(4-(2,6-dimethoxyphenyl)-5-(5-methyl-3-pyridinyl)-4H-1,2,4-triazol-3-yl)-1-methoxy-1-(5-methyl-2-pyrazinyl)-2-propanesulfonamide] | 13.3% | 18.8%
6 | COc1cnc([C@H](O)[C@@H](C)S(=O)(=O)Nc2nnc(-c3cccnc3)n2-c2c(OC)cccc2OC)cn1 (single isomer, unassigned) [Example 706.0, (1S,2R)-N-(4-(2,6-dimethoxyphenyl)-5-(3-pyridinyl)-4H-1,2,4-triazol-3-yl)-1-hydroxy-1-(5-methoxy-2-pyrazinyl)-2-propanesulfonamide or (1R,2S)-N-(4-(2,6-dimethoxyphenyl)-5-(3-pyridinyl)-4H-1,2,4-triazol-3-yl)-1-hydroxy-1-(5-methoxy-2-pyrazinyl)-2-propanesulfonamide] | 9.1% | 4.0%
7 | COc1ncnc(OC)c1-n1c(NS(=O)(=O)[C@@H](C)[C@H](OC)c2ccc(Cl)cn2)nnc1-c1cccnc1 (single isomer, unassigned) [Example 711.0, (1R,2S)-1-(5-chloro-2-pyridinyl)-N-(4-(4,6-dimethoxy-5-pyrimidinyl)-5-(3-pyridinyl)-4H-1,2,4-triazol-3-yl)-1-methoxy-2-propanesulfonamide or (1S,2R)-1-(5-chloro-2-pyridinyl)-N-(4-(4,6-dimethoxy-5-pyrimidinyl)-5-(3-pyridinyl)-4H-1,2,4-triazol-3-yl)-1-methoxy-2-propanesulfonamide] | 9.4% | 1.1%
8 | Cc1cnc([C@@H](C)[C@H](C)S(=O)(=O)Nc2nnc(-c3cncc(C)c3)n2-c2c(F)cccc2F)nc1 (single isomer, unassigned) [Example 826.0, (2S,3R)-N-(4-(2,6-difluorophenyl)-5-(5-methylpyridin-3-yl)-4H-1,2,4-triazol-3-yl)-3-(5-methylpyrimidin-2-yl)butane-2-sulfonamide or (2R,3S)-N-(4-(2,6-difluorophenyl)-5-(5-methylpyridin-3-yl)-4H-1,2,4-triazol-3-yl)-3-(5-methylpyrimidin-2-yl)butane-2-sulfonamide] | 6.02% | 5.16%
9 | COc1cccc(OC)c1-n1c(NS(=O)(=O)[C@@H](C)[C@@H](OC(C)C)c2ncc(C)cn2)nnc1-c1cccnc1 (stereo in doubt) [Example 627.0, (1R,2R)-N-(4-(2,6-dimethoxyphenyl)-5-(3-pyridinyl)-4H-1,2,4-triazol-3-yl)-1-(1-methylethoxy)-1-(5-methyl-2-pyrimidinyl)-2-propanesulfonamide, (1S,2S)-N-(4-(2,6-dimethoxyphenyl)-5-(3-pyridinyl)-4H-1,2,4-triazol-3-yl)-1-(1-methylethoxy)-1-(5-methyl-2-pyrimidinyl)-2-propanesulfonamide] | No effect | No effect
10 | CCO[C@H](c1ncc(F)cn1)[C@H](C)S(=O)(=O)Nc1nnc(-c2cccnc2)n1-c1c(OC)cccc1OC [Example 51.0, (1R,2S)-N-(4-(2,6-dimethoxyphenyl)-5-(3-pyidinyl)-4H-1,2,4-triazol-3-yl)-1-ethoxy-1-(5-fluoro-2-pyrimidinyl)-2-propanesulfonamide] | 2.0% | 2.0%
11 | CCO[C@H](c1ncc(F)cn1)[C@H](C)S(=O)(=O)Nc1nnc(-c2cncc(C)c2)n1-c1c(OC)cccc1OC [Example 79.0, (1R,2S)-N-(4-(2,6-dimethoxyphenyl)-5-(5-methyl-3-pyridinyl)-4H-1,2,4-triazol-3-yl)-1-ethoxy-1-(5-fluoro-2-pyrimidinyl)-2-propanesulfonamide] | 10.0% | 5.0%
12 | COc1cccc(OC)c1-n1c(NS(=O)(=O)[C@@H](C)[C@H](OC)c2ncc(F)cn2)nnc1-c1cncc(C)c1 [Example 80.0, (1R,2S)-N-(4-(2,6-dimethoxyphenyl)-5-(5-methyl-3-pyridinyl)-4H-1,2,4-triazol-3-yl)-1-(5-fluoro-2-pyrimidinyl)-1-methoxy-2-propanesulfonamide] | 5.0% | −2.7%
